Reference: patent US20150265642A1, “NAD BIOSYNTHESIS AND PRECURSORS IN THE PREVENTION AND TREATMENT OF INFLAMMATION” (PRESIDENT AND FELLOWS OF HARVARD COLLEGE, priority 2013, published 2015)
“Also recorded” adds a separate entry of the source.

Legend:
[1] = test system: NAD+ levels; test: NAD+ measurement in skeletal muscle of NMN-treated mice; format: in vivo, C57BL/6J mice; conditions: for levels of cellular NAD+: young and old
Protocol: (§1) C57BL/6J mice of 3, 6, 22, 24, or 30 months of age were obtained from the National Institutes of Aging mouse aging colony. Mice were acclimated for at least one-week prior to sacrifice. 3, and 24-month-old mice were given interperitoneal (IP) injections of 500 mg NMN/kg body weight per day or the equivalent volume of PBS for 7 consecutive days at 5:00 pm and 7:00 am on day 8 and sacrificed 4 hr after last injection. All animal studies followed the guidelines of and were approved by the Harvard Institutional Animal Care and Use Committee
NAD^+ from C2C12 cells and skeletal muscle was quantified with a commercially available kit (BioVision) according to the manufacturer's instructions and as described before (Gomes et al., Biochim. Biophys. Acta. 1822:185-195 (2012)).
(§2) C57BL/6J mice of 6, 22, or 30 months of age were obtained from the National Institutes of Aging mouse aging colony. Additionally 22 months old caloric restricted mice were also obtained from the National Institutes of Aging mouse aging colony. EGLN1 KO, SIRT1 KO and SIRT1 OE mice were generated as previously described (Minamishima et al., 2008; Price et al., 2012). Mice were acclimated for at least one-week prior to sacrifice. 3, 6, 22 and 24-month-old mice were given interperitoneal (IP) injections of 500 mg NMN/kg body weight per day or the equivalent volume of PBS for 7 consecutive days at 5:00 pm and 7:00 am on day 8 and sacrificed 4 hr after last injection.
NAD^+ from skeletal muscle was quantified with a commercially available kit (BioVision) according to the manufacturer's instructions and as described before (Gomes et al., 2012).
C57BL/6J mice of 3, 6, 22, or 24 months of age were obtained from the National Institutes of Aging mouse aging colony. Mice were acclimated for at least one-week prior to sacrifice. […]
NAD^+ from C2C12 cells and skeletal muscle was quantified with a commercially available kit (BioVision) according to the manufacturer's instructions and as described before (Gomes et al., 2012).

[2] = test system: HIF-1α; test: Immunoblot for HIF-1α in gastrocnemius of NMN-treated mice; format: in vivo
Protocol: as §1
C57BL/6J mice of 6, 22, or 30 months of age were obtained from the National Institutes of Aging mouse aging colony. Additionally 22 months old caloric restricted mice were also obtained from the National Institutes of Aging mouse aging colony. […]
Protein extracts from tissue or C2C12 cells were obtained by lysis in ice-cold lysis buffer (150 mM NaCl, 10 mM Tris HCl (pH 7.4), 1 mM EDTA, 1 mM EGTA, 1% Triton X-100, 0.5% NP-40) supplemented with a cocktail of protease and phosphatase inhibitors (Roche). Protein content was determined by the Bradford protein assay (Biorad), and 50 μg proteins were run on SDS-PAGE under reducing conditions. […] The immunostaining was detected using horseradish peroxidase-conjugated anti-rabbit or anti-mouse immunoglobulin for 1 h at room temperature. […]

[3] = test system: PGC-1α/β KO myotubes; test: Gene expression (qPCR) and HIF-1α immunoblot in PGC-1α/β KO myotubes; format: cell-based, mice; set-up: expression of mitochondrially-encoded ETC genes (ND1, CYTB, COX1, ATP6): dose or concentration left out as unconfirmed; conditions: primary PGC-1α/β KO myotubes incubated with NMN (12 h)
Protocol: Primary myoblasts cells were isolated from WT, SIRT1 KO (Price et al., 2012) and PGC-1α/β KO (Zechner et al., 2010) mice as previously described (Price et al., 2012). WT and PGC-1α/β KO primary myoblasts were plated and allowed to differentiate into myotubes by replacing the media with low glucose DMEM supplemented with 2% horse serum (Sigma-Aldrich) for 4 days. After the differentiation the cells were infected with empty vector or flag-SIRT1 adenovirus as described before (Gerhart-Hines et al., 2007). Media was replaced with fresh DMEM supplemented with 2% horse serum (Sigma-Aldrich) for an additional 48 hr and, after that the cells were harvested for the different assays as described. To investigate the role of HIF-1α in genome asynchrony, PGC-1α/β KO primary myotubes were treated for 12 hours with 1 mM DMOG (Sigma) or 10 μM DFO (Sigma), 24 h after infection with empty vector of flag-SIRT1 adenovirus or after 12 h treatment with […] NMN (Sigma).
RNA from skeletal muscle tissue and C2C12 cells were extracted with RNeasy mini kit (Qiagen) according to the instructions and quantified using the NanoDrop 1000 spectrophotometer (Thermo Scientific). cDNA was synthesized with the iSCRIP cDNA synthesis kit (BioRad) using 600 ng of RNA. Quantitative RT-PCR reactions were performed using 1 μM of primers and LightCycler® 480 SYBR Green Master (Roche) on an LightCycler® 480 detection system (Roche). Calculations were performed by a comparative method (2-ΔCT) using 18S as an internal control. For mtDNA analysis, total DNA was extracted with DNeasy blood and tissue kit (Qiagen). mtDNA was amplified using primers specific for the mitochondrial cytochrome c oxidase subunit 2 (COX2) gene and normalized to genomic DNA by amplification of the ribosomal protein s18 (rps18) nuclear gene. Primers were designed using the IDT software (IDT) and the primer sequences can be found in Table 1.
Protein extracts from tissue or C2C12 cells were obtained by lysis in ice-cold lysis buffer (150 mM NaCl, 10 mM Tris HCl (pH 7.4), 1 mM EDTA, 1 mM EGTA, 1% Triton X-100, 0.5% NP-40) supplemented with a cocktail of protease and phosphatase inhibitors (Roche). Protein content was determined by the Bradford protein assay (Biorad), and 50 μg proteins were run on SDS-PAGE under reducing conditions. The separated proteins were then electrophoretically transferred to a polyvinylidene difluoride membrane (Perkin-Elmer). […] The immunostaining was detected using horseradish peroxidase-conjugated anti-rabbit or anti-mouse immunoglobulin for 1 h at room temperature.

[4] = Lactate levels in skeletal muscle of NMN-treated mice; format: in vivo; conditions: 22-month-old mice; NMN one week
Source text: as §2

## NC(=O)c1ccc[n+]([C@@H]2O[C@H](COP(=O)([O-])O)[C@@H](O)[C@H]2O)c1 [NMN, nicotinamide mononucleotide]
[1]; 3- and 24-month-old C57BL/6J mice, NMN 500 mg/kg IP, one week, treated vs untreated
  levels of cellular NAD+: approximately 2 fold
[1]; 6- and 22-month-old C57BL/6J mice, NMN one week
  levels of cellular NAD+: 2 fold
[1]; gastrocnemius, 3- and 24-month-old C57BL6J mice, NMN IP 500 mg/kg/day, 7 days, colorimetric NAD+ assay
  NAD+ levels in the skeletal muscle of old mice: increases NAD+ levels
[2]; 22-month-old mice, gastrocnemius, NMN IP 500 mg/kg/day, 7 days, 500 mg/kg/day
  HIF-1α protein: reversed the age-induced decline in VHL and consequent accumulation of HIF-1α; also recorded: destabilizes HIF-1alpha in the skeletal muscle of old animals
[2]; 24-month-old mice, NMN 500 mg/kg IP, one week
  HIF-1α in muscle: reversed the age-induced increase in HIF-1α in muscle
[3]
  expression of mitochondrially-encoded ETC genes (ND1, CYTB, COX1, ATP6): induced expression of mitochondrially-encoded ETC genes
[4]
  lactate levels in the skeletal muscle: suppressed the increase in lactate levels
